IC50, Activity and inhibition data for two compounds are collected here from ChEMBL document CHEMBL4417636, “Small molecule inhibitors of pendrin ion exchange and pharmaceutical compositions” (2017).

The target of one test is T1, Pendrin (Homo sapiens, UniProt O43511).
T1 sequence (O43511 whole entry): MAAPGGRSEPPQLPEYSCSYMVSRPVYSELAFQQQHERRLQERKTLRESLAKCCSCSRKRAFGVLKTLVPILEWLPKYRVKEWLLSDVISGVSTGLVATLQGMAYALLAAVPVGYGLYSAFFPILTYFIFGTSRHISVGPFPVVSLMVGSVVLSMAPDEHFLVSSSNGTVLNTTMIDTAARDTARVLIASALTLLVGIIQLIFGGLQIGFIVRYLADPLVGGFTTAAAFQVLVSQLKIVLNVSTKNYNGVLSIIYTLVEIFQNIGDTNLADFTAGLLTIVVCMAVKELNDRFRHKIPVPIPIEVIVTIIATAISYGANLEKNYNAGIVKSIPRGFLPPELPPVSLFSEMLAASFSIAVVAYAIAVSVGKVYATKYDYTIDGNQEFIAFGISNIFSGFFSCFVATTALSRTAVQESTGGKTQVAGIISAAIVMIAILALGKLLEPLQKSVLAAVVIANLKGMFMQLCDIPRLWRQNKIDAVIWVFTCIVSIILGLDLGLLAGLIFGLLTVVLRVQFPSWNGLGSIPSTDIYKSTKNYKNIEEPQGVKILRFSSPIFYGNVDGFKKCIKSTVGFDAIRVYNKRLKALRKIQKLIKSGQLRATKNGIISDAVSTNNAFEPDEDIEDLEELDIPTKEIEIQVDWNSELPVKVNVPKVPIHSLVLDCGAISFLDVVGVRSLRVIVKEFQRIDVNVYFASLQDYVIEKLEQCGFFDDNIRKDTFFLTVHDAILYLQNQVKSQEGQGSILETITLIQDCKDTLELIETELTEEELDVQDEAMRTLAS
Kind of test: Inhibition of human pendrin expressed in FRT cells co-expressing EYFP-HIF assessed as reduction in pendrin-mediated Cl(-)/r exchange incubated for 10 mins by pH-sensitive fluorescent probe BCECF-AM based fluorescence assay relative to control. In kind it is cell-based.

In test [1] the test system is Mus musculus. Description: Potentiation of 20 mg/kg, ip furosemide-induced acute diuretic action in CD1 mouse assessed as increase in urinary Na+ excretion at 10 mg/kg, ip measured at 3 hrs relative to control. In kind it is functional, organism-based.
Test [2] has as its target T2, Pendrin (Mus musculus) (UniProt Q9R155).
T2 sequence (whole entry): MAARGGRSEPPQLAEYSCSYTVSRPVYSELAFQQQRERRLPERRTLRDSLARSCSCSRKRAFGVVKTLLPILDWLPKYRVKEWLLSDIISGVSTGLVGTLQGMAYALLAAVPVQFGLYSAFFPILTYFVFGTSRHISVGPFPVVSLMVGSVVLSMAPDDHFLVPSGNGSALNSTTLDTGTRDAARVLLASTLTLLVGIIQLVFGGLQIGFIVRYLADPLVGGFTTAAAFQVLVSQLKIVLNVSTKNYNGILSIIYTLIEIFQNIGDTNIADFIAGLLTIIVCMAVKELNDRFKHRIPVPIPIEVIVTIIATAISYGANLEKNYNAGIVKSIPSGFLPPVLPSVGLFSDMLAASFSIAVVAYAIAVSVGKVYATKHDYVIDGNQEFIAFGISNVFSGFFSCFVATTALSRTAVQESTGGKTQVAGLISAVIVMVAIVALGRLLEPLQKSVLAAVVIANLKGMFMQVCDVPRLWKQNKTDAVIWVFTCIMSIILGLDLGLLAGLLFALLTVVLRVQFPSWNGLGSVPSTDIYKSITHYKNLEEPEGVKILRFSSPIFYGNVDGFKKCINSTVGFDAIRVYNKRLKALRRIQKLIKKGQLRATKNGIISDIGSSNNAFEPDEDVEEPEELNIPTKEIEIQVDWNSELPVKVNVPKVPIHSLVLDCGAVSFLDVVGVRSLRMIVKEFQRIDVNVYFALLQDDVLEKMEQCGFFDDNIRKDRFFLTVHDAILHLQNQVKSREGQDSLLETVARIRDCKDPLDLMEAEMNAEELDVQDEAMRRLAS
Description: Inhibition of mouse pendrin expressed in FRT cells co-expressing YFP-HIF assessed as reduction in pendrin-mediated exchange of Cl(-) with I(-) by pH-sensitive fluorescent probe BCECF-AM based fluorescence assay relative to control. In kind it is cell-based.

For test [3], the target named is T2, Pendrin (Mus musculus). Description: Inhibition of mouse pendrin expressed in FRT cells co-expressing YFP-HIF assessed as reduction in pendrin-mediated exchange of Cl(-) with SCN(-) by pH-sensitive fluorescent probe BCECF-AM based fluorescence assay relative to control. In kind it is cell-based.
Test [4] has as its system Mus musculus. Kind of test: Potentiation of 20 mg/kg, ip furosemide-induced acute diuretic action in CD1 mouse assessed as effect on urinary K+ excretion at 50 mg/kg, ip measured at 3 hrs relative to control. In kind it is functional, organism-based.
The species named for a further test is Homo sapiens. Kind of test: Effect on airway surface liquid pH in NHBE cells at 25 uM by pH-sensitive fluorophore BCECF based fluorescence based assay. In kind it is functional, cell-based.
The target in test [5] is T3, Pendrin (Homo sapiens) (UniProt O43511).
T3 sequence (whole entry): T1 sequence (O43511 whole entry)
Description: Inhibition of pendrin in human bronchial epithelial cells assessed as increase in airway surface liquid depth at 25 uM by rhodamine B-dextran fluorescence based confocal microscopy (reference value: -16 um).

The target in test [6] is T3, Pendrin (Homo sapiens). Description: Inhibition of pendrin in IL13-stimulated human bronchial epithelial cells assessed as reduction in gluconate gradient-induced intracellular alkalization at 25 uM. In kind it is cell-based.

The source made the active and inactive calls. No cut-off for these calls is given here.

Consider `Cc1n[nH]c(-c2cc(S(=O)(=O)NC3CCCc4ccccc43)c(C)s2)c1C` (stereo not drawn), for which the IC50 (in general, the concentration needed to halve the response being measured) at Pendrin was found to be 8 µM. Further, the result in the test with Mus musculus [1] was Active. Further, the inhibition result on Pendrin (Mus musculus) [2] and at Pendrin (Mus musculus) [3] was “Dose-dependent effect” in each case. For the same compound, the outcome in the test with Mus musculus [4] was inactive.
Turning to `Cn1nc(COc2cccc(F)c2)c2c1CCN(C(=O)Nc1ccc(Cl)cc1)C2`, in the test listed under Homo sapiens, the result was inactive. For the same compound, at Pendrin (Homo sapiens) [5], the Activity is -8 µm. Further, the inhibition result at Pendrin (Homo sapiens) [6] was “Active”.
